Assay results reported in US7132422B2, “Sodium channel modulators” (Theravance, Inc., priority 2001, dated 2006).

system: spinal nerve ligation (SNL) rats; test: In vivo pain model: spinal nerve ligation (SNL), 50% withdrawal threshold with von Frey filaments; conditions: intraperitoneal dose of approximately 30 mg/kg
Description: Male Sprague-Dawley rats (120–180 g, Harlan, Indianapolis, Ind.) are pre-screened to determine their baseline 50% withdrawal threshold using a set of von Frey filaments. The 50% withdrawal threshold for mechanical stimulation to the hind paw is determined by the up-down method described by Dixon W. J., Ann.
An abrupt withdrawal of the foot during stimulation or immediately after the removal of stimulus is considered a positive response.
Whenever there is a positive or negative response, the next weaker or stronger filament is applied, respectively. The test is continued until six stimuli after the first change in response has been obtained. […] In the cases where continuous positive or negative responses are observed all the way out to the end of the stimulus spectrum, values of 0.3 g or 15.0 g are assigned, respectively.
After pre-screening, rats which display a 50% withdrawal threshold greater than 8 g are acceptable for surgery. The spinal nerve ligation (SNL) surgery is carried out as follows. Rats are anesthetized with inhaled Isoflurance and the left L5 and L6 spinal nerves are tightly ligated with 6-0 silk thread. Postoperatively, rats are placed under a heat lamp until motor function returns and then single-housed. At 5–7 days post surgery, rats are re-tested to determine their post-surgery 50% withdrawal threshold. Rats which consistently display (2 or more days) a 50% withdrawal threshold less than 4.5 g are considered acceptable for compound investigation.
Compounds are formulated in saline for injection and pH adjusted with dilute sodium hydroxide. Groups sizes are normally 5 or 6 rats. […] At 1, 3, and 6 hours post administration, the 50% withdrawal threshold is determined by an investigator who is blinded to the treatment groups. If at 6 hours, some prolonged activity is present, i.e., 50% withdrawal thresholds greater than 8 g, then later timepoints may be attempted (normally at 12 and 24 hours). Compounds can also be administered orally to determine oral activity.

| SMILES | effectiveness for treating pain / activity in the in vivo pain model |
| --- | --- |
| Cc1cccc(C)c1OCC(COc1c(C)cccc1C)NCCc1ccncc1 [Compound 79] | not active |
| Cc1ccccc1OCC(N)COc1ccccc1C [Compound 8] | not active |
| Cc1cccc(Cl)c1OCC(C)(N)COc1c(C)cccc1Cl [Compound 5] | some activity |
| Cc1cccc(C)c1OCC(N)COc1c(F)cc(F)cc1F (stereo not drawn) [Compound 11] | some activity |
| CC(N)(COc1c(F)cc(F)cc1F)COc1c(F)cc(F)cc1F [Compound 6] | not active |
| Cc1ccccc1OCC(C)(N)COc1ccccc1C [Compound 1] | demonstrated effectiveness for treating pain |
